The record followed here is US20120100186A1, “NANOPARTICULATE-BASED CONTRACEPTIVE/ANTI-HIV COMPOSITION AND METHODS” (Washington University, priority 2010, published 2012).

Series [1] relates to Immortalized vaginal epithelial cells (VK2/E6E7). As to the kind of experiment: Vaginal epithelium toxicity (MTT viability). The format is cell-based. To be noted: concentrations of melittin as low as 1 μM, 12 hours at 37° C., FIG. 1A. The procedure:
For toxicity studies, 7500 cells were added to each well of a 96-well plate and allowed to attach for 24 hours. Melittin or melittin coated PFC-NP were then added and incubated with the cells for 12 hours at 37° C. with shaking at 500 rpm. Cells were washed once with media and incubated with MTT reagent for 4 hours. The colored product was solubilized in DMSO and absorbance at 570 nm was measured using a plate reader.
In more detail, cells were detached from a T75 flask by rinsing with 2-3 mL of trypsin, followed by adding 5 mL trypsin and incubating at 37° C. for 15 minutes. Five mL DMEM-FBS is then added to stop the trypsin, and the mixture is centrifuged at 900 rpm for 5 minutes, supernatant is removed and the cells are resuspended in 5 mL of Keratinocyte-Serum Free Media (Invitrogen™). The cells are diluted to approximately 75,000 cells/mL, and 100 μL of the cell suspension is added to each well of a 96-well plate and incubated for 24 hours at 37° C. The media are replaced with 100 μL of media containing the melittin or melittin-loaded nanoparticles at various concentrations and incubated for 12 hours at 37° C. with shaking at 500 rpm. […]
To each well containing 100 μL of media, 20 μL of MTT reagent (5 mg/mL MTT in PBS) were added, and incubated for 4 hours at 37° C. […] Absorbance is read at 570 nm using a plate reader.

A further series has as its system sperm. Put plainly: Sperm motility and viability (computer assisted sperm analysis). The series is classed as cell-based, Human. To be noted: 30 minutes at 37° C., 10 million sperm per mL; FIGS. 5A-5D. The procedure:
Human semen samples were obtained from the Washington University in vitro fertilization laboratory and stored at 37° C. until use. Semen was diluted in EmbryoMax® Human Tubal Fluid (HTF) (Millipore) and free melittin or melittin-coupled nanoparticles in HTF was added to achieve a final sperm concentration of 10 million sperm per mL. (For nanoparticles, samples were pipetted up and down 3 times every 10 minutes to keep the nanoparticles suspended.) Samples were incubated in 96-well plates for 30 minutes at 37° C. with shaking at 150 rpm to prevent sperm from settling. Afterwards, Viadent® stain (Hoechst 33258, Hamilton Thorne) was added to achieve a final stain concentration of 10 μg/mL and samples were incubated for an additional 5 minutes. Sperm motility and viability were determined using an IVOS® Computer Assisted Sperm Analyzer (Hamilton Thorne).

Consider `CC[C@H](C)[C@H](NC(=O)CN)C(=O)NCC(=O)N[C@@H](C)C(=O)N[C@H](C(=O)N[C@@H](CC(C)C)C(=O)N[C@@H](CCCCN)C(=O)N[C@H](C(=O)N[C@@H](CC(C)C)C(=O)N[C@H](C(=O)N[C@H](C(=O)NCC(=O)N[C@@H](CC(C)C)C(=O)N1CCC[C@H]1C(=O)N[C@@H](C)C(=O)N[C@@H](CC(C)C)C(=O)N[C@H](C(=O)N[C@@H](CO)C(=O)N[C@@H](Cc1c[nH]c2ccccc12)C(=O)N[C@H](C(=O)N[C@@H](CCCCN)C(=O)N[C@@H](CCCNC(=N)N)C(=O)N[C@@H](CCCCN)C(=O)N[C@@H](CCCNC(=N)N)C(=O)N[C@@H](CCC(N)=O)C(=O)N[C@@H](CCC(N)=O)C(N)=O)[C@@H](C)CC)[C@@H](C)CC)[C@@H](C)O)[C@@H](C)O)C(C)C)C(C)C` [melittin], for which, in series [1], the “viability of vaginal epithelium cells” value is “dramatically decrease”. Besides, in the series with sperm, the sperm motility entry is given as “impeded” and the sperm viability result is reported as “impeded”.
